Assay: Stability and protonation constants of Cu^II complexes (spectrophotometry, pH-potentiometry)
Type: physicochemical
Conditions: 25°C, 0.15 M NaCl
Description: Stability constant of Cu(DOTPI) complex was determined by spectrophotometry, studying the Cu^II-DOTPI systems at the absorption band of Cu^II-complex at [H^+] = 0.01– 0.2 M over the wavelength range of 400–800 nm. Concentrations of Cu^II and DOTPI were 1 mM. The H^+ concentration in the samples was adjusted by addition of calculated amounts of 2.0 M HCl, while ionic strength was not constant in these samples. Samples were kept at 25°C for a week. Absorbance values were determined at 9 wavelengths (550, 575, 600, 625, 650, 675, 700, 725, and 750 nm). For calculation of stability and protonation constants of Cu(DOTPI), molar absorptivities of CuCl2, and Cu(HxL) species (wherein x = 0, 1, 2 …5) were determined by recording the spectra of 1.0 × 10^−3, 2.0 × 10^−3 and 3.0 × 10^−3 M solutions of CuCl2 and Cu(DOTPI) in the pH range of 1.7–11.7. The protonation constants of the complexes Cu(DOTPI) and the stability and protonation constants of the dinuclear Cu2(DOTPI) complexes were determined by pH-potentiometric titrations, made at 1:1 and 2:1 metal to ligand concentration ratios.
The stability constant of the Cu(DOTPI(Chx)4) complex has been determined by spectrophotometry with the use of competition reactions between DOTPI(Chx)4 and EDTA for the Cu^2+ at pH = 5.0. The concentration of Cu(EDTA) was 0.2 mM, while that of the DOTPI(Chx)4 was varied between 0.1 and 1.0 mM (5 samples). The samples were kept at 25°C for 2 weeks. The absorbance values and the molar absorptivities of CuCl2, Cu(DOTPI(Chx)4), and Cu(EDTA) have been determined at 11 wavelength (300, 304, 308, 312, 316, 320, 324, 328, 332, 336, and 340 nm) values between 300 and 340 nm. The molar absorptivities of CuCl2, Cu(DOTPI(Chx)4), and Cu(EDTA) were deteremined in 0.05, 0.1, 0.2, 0.3, and 0.4 mM solutions. The absorbance and pH values were determined in the samples after the equilibrium was reached (the time needed to reach the equilibria was determined by spectrophotometry). The spectrophotometric measurements were made with the use of 1.0 cm cells with a Cary 1E spectrophotometer at 25°C. The protonation constants of Cu(DOTPI(Chx)4) complex were determined by pH-potentiometric titrations at 1:1 metal to ligand molar ratio.
For pH measurements and titrations, a Metrohm 785 DMP Titrino titration workstation and a Metrohm-6.0233.100 combined electrode were used. Equilibrium measurements were carried out at a constant ionic strength (0.15 M NaCl) in 6 mL samples at 25°C. The solutions were stirred, and constantly purged with N2. The titrations were performed in a pH range of 1.7–11.7. KH-phthalate (pH = 4.005) and borax (pH = 9.177) buffers were used to calibrate the pH meter. For calculation of [H^+] from measured pH values, the method proposed by Irving et al. was used (Irving et al., [1967]). A 0.01 M HCl solution was titrated with the standardized NaOH solution in the presence of 0.1 M NaCl. Differences between the measured (pHread) and calculated pH (–log[H^+]) values were used to obtain the equilibrium H^+ concentration from the pH values, measured in the titration experiments. For the equilibrium calculations, the stoichiometric water ionic product (pKw) is also needed to calculate [H^+] values in basic conditions. […] For the calculation of the equilibrium constants the program PSEQUAD (Zekany and Nagypal, [1985]) was used.
2. Protonation and complexation equilibria of DOTPI and
The protonation processes of the DOTPI and DOTPI(Chx)4, ligands have been studied by pH-potentiometry. The protonation constants (logKiH) of ligands are defined according to Eq. (1).
The stability and protonation constants of DOTPI and DOTPI(Chx)4 complexes with several metal ions were determined by pH-potentiometric and UV/Vis spectrophotometric, methods.
The stability and protonation constants of the metal complexes formed with the DOTPI and […]

protonation constant Cu2LH: 5.04 (3)
protonation constant Cu2LH2: 4.71 (5)
protonation constant CuH2L: 5.07 (1)
protonation constant CuH3L: 4.49 (2)
protonation constant CuH4L: 4.20 (2)
protonation constant CuH5L: 2.35 (3)
protonation constant CuHL: 5.68 (2)
stability constant of dinuclear complex Cu2L: 4.49 (6)
SMILES: O=C(O)CCP(=O)(O)CN1CCN(CP(=O)(O)CCC(=O)O)CCN(CP(=O)(O)CCC(=O)O)CCN(CP(=O)(O)CCC(=O)O)CC1 [DOTPI, 1,4,7,10-tetraazacyclododecane-1,4,7,10-tetrakis[methylene(2-carboxyethylphosphinic acid)]]

From PMC5902495, “Synthesis of Symmetrical Tetrameric Conjugates of the Radiolanthanide Chelator DOTPI for Application in Endoradiotherapy by Means of Click Chemistry” (Frontiers in Chemistry, 2018)
